According to ChEMBL document CHEMBL4325853, “Design, synthesis and antibacterial evaluation of 2,4-disubstituted-6-thiophenyl-pyrimidines” (Eur J Med Chem, 2019):
Activity calls are given as the source filed them. No cut-off for these calls is given here.

Columns and labels:
[1] = target: T1, Cell division protein FtsZ (Staphylococcus aureus) (UniProt P0A031); assay: Inhibition of recombinant Staphylococcus aureus FtsZ polymerization assessed as reduction in bundling of protein protofilaments at 4 ug/ml preincubated for 10 mins followed by GTP addition and measured after 15 mins by transmission electron microscopic method
T1 sequence (whole entry): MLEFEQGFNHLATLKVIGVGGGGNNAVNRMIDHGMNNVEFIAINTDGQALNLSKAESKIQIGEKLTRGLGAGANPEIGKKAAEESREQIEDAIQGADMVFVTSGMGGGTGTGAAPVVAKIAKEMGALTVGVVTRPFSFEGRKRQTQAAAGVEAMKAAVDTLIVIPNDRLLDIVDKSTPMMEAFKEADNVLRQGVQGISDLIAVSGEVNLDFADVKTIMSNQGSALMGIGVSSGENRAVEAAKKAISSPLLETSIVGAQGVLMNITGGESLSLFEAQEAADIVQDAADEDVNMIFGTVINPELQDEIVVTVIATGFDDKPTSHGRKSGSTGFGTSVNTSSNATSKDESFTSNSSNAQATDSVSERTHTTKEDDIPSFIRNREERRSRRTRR

[2] = target: T1, Cell division protein FtsZ (Staphylococcus aureus); assay: Inhibition of recombinant Staphylococcus aureus FtsZ GTPase activity assessed as reduction in inorganic phosphate formation at 2 ug/ml after 30 mins by colorimetric method relative to control
[3] = target: T1, Cell division protein FtsZ (Staphylococcus aureus); assay: Inhibition of recombinant Staphylococcus aureus FtsZ GTPase activity assessed as reduction in inorganic phosphate formation at 16 ug/ml after 30 mins by colorimetric method relative to control
[4] = target: T1, Cell division protein FtsZ (Staphylococcus aureus); assay: Inhibition of recombinant Staphylococcus aureus FtsZ polymerization assessed as reduction in size of protein polymers at 4 ug/ml preincubated for 10 mins followed by GTP addition and measured after 15 mins by transmission electron microscopic method
Bacillus subtilis = assay: Induction of morphological changes in Bacillus subtilis 168 assessed as cell length at 2 ug/ml after 4.5 hrs by phase contrast microscopic analysis (reference value: 5 to 10 micrometer); type: functional, subsp. subtilis str. 168
[5] = target: T1, Cell division protein FtsZ (Staphylococcus aureus); assay: Inhibition of recombinant Staphylococcus aureus FtsZ polymerization by 90 degree light scattering-based fluorescence spectrometric analysis
Staphylococcus aureus = assay: Ratio of MIC for Staphylococcus aureus ATCC 29213 after and before 5 to 21 serial passages; type: functional

Structure (SMILES) | inhibition [1] | inhibition [2] | inhibition [3] | inhibition [4] | Activity (Bacillus subtilis) | inhibition [5] | Ratio (Staphylococcus aureus)
CC(C)c1ccc(CN2CCCN(CCc3cc(-c4cccs4)nc(-c4ccncc4)n3)CC2)cc1 | Active | 25% | 70% | Active | >20 um | Dose-dependent effect | –
COc1cccc(OC)c1C(=O)N[C@@H]1C(=O)N2[C@@H]1SC(C)(C)[C@@H]2C(=O)O [METHICILLIN] | – | – | – | – | – | – | 32
